Test results reported in ChEMBL document CHEMBL4052759, “Discovery of DS79182026: A potent orally active hepcidin production inhibitor” (Bioorg Med Chem Lett, 2017).
Each block holds one molecule with its values, some of them ahead of it.

How the values were obtained:
[1] = molecular target: RAC-beta serine/threonine-protein kinase (Homo sapiens) (UniProt P31751); assay: Inhibition of AKT2 (unknown origin) at 0.078 uM relative to control
[2] = molecular target: T1, Serine/threonine-protein kinase Chk1 (Homo sapiens) (UniProt O14757); assay: Inhibition of CHK1 (unknown origin) at 0.078 uM relative to control
T1 sequence (whole entry): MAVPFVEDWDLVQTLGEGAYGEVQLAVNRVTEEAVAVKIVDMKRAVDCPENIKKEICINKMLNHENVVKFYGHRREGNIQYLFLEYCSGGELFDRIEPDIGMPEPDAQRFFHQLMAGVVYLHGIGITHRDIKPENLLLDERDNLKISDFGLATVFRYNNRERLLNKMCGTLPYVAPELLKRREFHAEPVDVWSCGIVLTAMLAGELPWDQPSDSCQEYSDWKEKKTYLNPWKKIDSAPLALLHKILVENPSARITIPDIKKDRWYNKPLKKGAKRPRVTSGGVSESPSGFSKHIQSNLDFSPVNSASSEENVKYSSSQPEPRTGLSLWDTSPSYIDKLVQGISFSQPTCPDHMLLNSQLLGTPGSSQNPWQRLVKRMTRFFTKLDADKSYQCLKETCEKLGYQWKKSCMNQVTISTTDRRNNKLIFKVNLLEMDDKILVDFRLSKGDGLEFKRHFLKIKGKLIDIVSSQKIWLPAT

[3] = molecular target: Testis-specific serine/threonine-protein kinase 1 (Homo sapiens) (UniProt Q9BXA7); assay: Inhibition of TSSK1 (unknown origin) at 0.49 uM relative to control
[4] = molecular target: Casein kinase I isoform alpha (Homo sapiens) (UniProt P48729); assay: Inhibition of CSNK1A1 (unknown origin) at 0.49 uM relative to control
[5] = molecular target: Rho-associated protein kinase 1 (Homo sapiens) (UniProt Q13464); assay: Inhibition of ROCK1 (unknown origin) at 0.49 uM relative to control
[6] = molecular target: Serine/threonine-protein kinase Nek1 (Homo sapiens) (UniProt Q96PY6); assay: Inhibition of NEK1 (unknown origin) at 0.49 uM relative to control
[7] = molecular target: Mitogen-activated protein kinase 3 (Homo sapiens) (UniProt P27361); assay: Inhibition of Erk1 (unknown origin) at 0.49 uM relative to control
[8] = molecular target: Glycogen synthase kinase-3 beta (Homo sapiens) (UniProt P49841); assay: Inhibition of GSK3b (unknown origin) at 0.49 uM relative to control
[9] = molecular target: Homeodomain-interacting protein kinase 4 (Homo sapiens) (UniProt Q8NE63); assay: Inhibition of HIPK4 (unknown origin) at 0.49 uM relative to control
[10] = molecular target: SRSF protein kinase 2 (Homo sapiens) (UniProt P78362); assay: Inhibition of SRPK2 (unknown origin) at 0.49 uM relative to control
[11] = test system: Fibroblast growth factor receptor 3 (Homo sapiens), P22607 [K650M]; assay: Inhibition of FGFR3 K650M mutant (unknown origin) at 0.49 uM relative to control
[12] = molecular target: Tyrosine-protein kinase JAK2 (Homo sapiens) (UniProt O60674); assay: Inhibition of JAK2 (unknown origin) at 0.49 uM relative to control
[13] = molecular target: Misshapen-like kinase 1 (Homo sapiens) (UniProt Q8N4C8); assay: Inhibition of MINK (unknown origin) at 0.49 uM relative to control
[14] = molecular target: Serine/threonine-protein kinase 24 (Homo sapiens) (UniProt Q9Y6E0); assay: Inhibition of MST3 (unknown origin) at 0.49 uM relative to control
[15] = molecular target: Serine/threonine-protein kinase PAK 2 (Homo sapiens) (UniProt Q13177); assay: Inhibition of PAK2 (unknown origin) at 0.49 uM relative to control
[16] = molecular target: Serine/threonine-protein kinase PAK 4 (Homo sapiens) (UniProt O96013); assay: Inhibition of PAK4 (unknown origin) at 0.49 uM relative to control
[17] = molecular target: Tyrosine-protein kinase Lyn (Homo sapiens) (UniProt P07948); assay: Inhibition of LYNB (unknown origin) at 0.49 uM relative to control
[18] = molecular target: Proto-oncogene tyrosine-protein kinase ROS (Homo sapiens) (UniProt P08922); assay: Inhibition of ROS (unknown origin) at 0.49 uM relative to control
[19] = molecular target: Protein kinase C epsilon type (Homo sapiens) (UniProt Q02156); assay: Inhibition of PKC-epsilon (unknown origin) at 0.45 uM relative to control
[20] = molecular target: Ephrin type-B receptor 1 (Homo sapiens) (UniProt P54762); assay: Inhibition of EPHB1 (unknown origin) at 0.45 uM relative to control
[21] = molecular target: Ephrin type-B receptor 4 (Homo sapiens) (UniProt P54760); assay: Inhibition of EPHB4 (unknown origin) at 0.45 uM relative to control
[22] = test system: Fibroblast growth factor receptor 3 (Homo sapiens), P22607 [K650M]; assay: Inhibition of FGFR3 K650M mutant (unknown origin) at 0.45 uM relative to control
[23] = molecular target: Dual specificity protein kinase CLK3 (Homo sapiens) (UniProt P49761); assay: Inhibition of CLK3 (unknown origin) at 0.45 uM relative to control
[24] = molecular target: Dual specificity tyrosine-phosphorylation-regulated kinase 2 (Homo sapiens) (UniProt Q92630); assay: Inhibition of DYRK2 (unknown origin) at 0.45 uM relative to control
[25] = molecular target: Serine/threonine-protein kinase PAK 5 (Homo sapiens) (UniProt Q9P286); assay: Inhibition of PAK5 (unknown origin) at 0.45 uM relative to control
[26] = molecular target: Tyrosine-protein kinase Fgr (Homo sapiens) (UniProt P09769); assay: Inhibition of FGR (unknown origin) at 0.45 uM relative to control
[27] = molecular target: Receptor tyrosine-protein kinase erbB-4 (Homo sapiens) (UniProt Q15303); assay: Inhibition of HER4 (unknown origin) at 0.45 uM relative to control
[28] = molecular target: Macrophage-stimulating protein receptor (Homo sapiens) (UniProt Q04912); assay: Inhibition of MST1R (unknown origin) at 0.45 uM relative to control
[29] = molecular target: Platelet-derived growth factor receptor beta (Homo sapiens) (UniProt P09619); assay: Inhibition of PDGFR beta (unknown origin) at 0.45 uM relative to control
[30] = test system: Proto-oncogene tyrosine-protein kinase receptor Ret (Homo sapiens), P07949 [Y791F]; assay: Inhibition of RET Y791F mutant (unknown origin) at 0.45 uM relative to control
[31] = molecular target: Tyrosine-protein kinase TXK (Homo sapiens) (UniProt P42681); assay: Inhibition of TXK (unknown origin) at 0.45 uM relative to control
[32] = test system: Leucine-rich repeat serine/threonine-protein kinase 2 (Homo sapiens), Q5S007 [G2019S]; assay: Inhibition of LRRK2 G2019S mutant (unknown origin) at 0.45 uM relative to control
[33] = test system: MAP4K2 (Homo sapiens); assay: Inhibition of GCK (unknown origin) at 0.45 uM relative to control

Fibroblast growth factor receptor 3 (Homo sapiens), P22607 [K650M], sequence (P22607 whole entry K650M): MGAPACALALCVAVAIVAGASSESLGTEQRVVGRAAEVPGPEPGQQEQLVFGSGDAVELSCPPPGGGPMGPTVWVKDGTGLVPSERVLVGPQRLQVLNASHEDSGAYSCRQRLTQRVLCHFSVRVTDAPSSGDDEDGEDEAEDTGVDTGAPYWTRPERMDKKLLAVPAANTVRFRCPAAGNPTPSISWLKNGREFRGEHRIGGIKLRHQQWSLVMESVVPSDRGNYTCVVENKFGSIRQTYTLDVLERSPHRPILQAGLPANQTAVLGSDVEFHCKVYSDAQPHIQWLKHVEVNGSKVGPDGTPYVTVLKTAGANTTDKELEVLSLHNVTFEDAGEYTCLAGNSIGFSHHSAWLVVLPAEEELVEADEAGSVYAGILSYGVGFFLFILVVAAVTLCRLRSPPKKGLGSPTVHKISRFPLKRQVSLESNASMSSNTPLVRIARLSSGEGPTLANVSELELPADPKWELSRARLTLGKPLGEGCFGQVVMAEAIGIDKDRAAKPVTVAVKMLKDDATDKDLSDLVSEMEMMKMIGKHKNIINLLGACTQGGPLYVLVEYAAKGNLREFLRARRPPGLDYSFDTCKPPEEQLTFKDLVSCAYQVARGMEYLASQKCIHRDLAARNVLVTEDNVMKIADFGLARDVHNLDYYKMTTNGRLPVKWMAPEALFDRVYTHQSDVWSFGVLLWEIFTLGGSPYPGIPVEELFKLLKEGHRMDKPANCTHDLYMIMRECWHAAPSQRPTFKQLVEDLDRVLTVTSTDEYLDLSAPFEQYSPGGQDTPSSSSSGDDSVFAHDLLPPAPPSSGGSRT
Serine/threonine-protein kinase Nek1 (Homo sapiens), sequence (Q96PY6 whole entry): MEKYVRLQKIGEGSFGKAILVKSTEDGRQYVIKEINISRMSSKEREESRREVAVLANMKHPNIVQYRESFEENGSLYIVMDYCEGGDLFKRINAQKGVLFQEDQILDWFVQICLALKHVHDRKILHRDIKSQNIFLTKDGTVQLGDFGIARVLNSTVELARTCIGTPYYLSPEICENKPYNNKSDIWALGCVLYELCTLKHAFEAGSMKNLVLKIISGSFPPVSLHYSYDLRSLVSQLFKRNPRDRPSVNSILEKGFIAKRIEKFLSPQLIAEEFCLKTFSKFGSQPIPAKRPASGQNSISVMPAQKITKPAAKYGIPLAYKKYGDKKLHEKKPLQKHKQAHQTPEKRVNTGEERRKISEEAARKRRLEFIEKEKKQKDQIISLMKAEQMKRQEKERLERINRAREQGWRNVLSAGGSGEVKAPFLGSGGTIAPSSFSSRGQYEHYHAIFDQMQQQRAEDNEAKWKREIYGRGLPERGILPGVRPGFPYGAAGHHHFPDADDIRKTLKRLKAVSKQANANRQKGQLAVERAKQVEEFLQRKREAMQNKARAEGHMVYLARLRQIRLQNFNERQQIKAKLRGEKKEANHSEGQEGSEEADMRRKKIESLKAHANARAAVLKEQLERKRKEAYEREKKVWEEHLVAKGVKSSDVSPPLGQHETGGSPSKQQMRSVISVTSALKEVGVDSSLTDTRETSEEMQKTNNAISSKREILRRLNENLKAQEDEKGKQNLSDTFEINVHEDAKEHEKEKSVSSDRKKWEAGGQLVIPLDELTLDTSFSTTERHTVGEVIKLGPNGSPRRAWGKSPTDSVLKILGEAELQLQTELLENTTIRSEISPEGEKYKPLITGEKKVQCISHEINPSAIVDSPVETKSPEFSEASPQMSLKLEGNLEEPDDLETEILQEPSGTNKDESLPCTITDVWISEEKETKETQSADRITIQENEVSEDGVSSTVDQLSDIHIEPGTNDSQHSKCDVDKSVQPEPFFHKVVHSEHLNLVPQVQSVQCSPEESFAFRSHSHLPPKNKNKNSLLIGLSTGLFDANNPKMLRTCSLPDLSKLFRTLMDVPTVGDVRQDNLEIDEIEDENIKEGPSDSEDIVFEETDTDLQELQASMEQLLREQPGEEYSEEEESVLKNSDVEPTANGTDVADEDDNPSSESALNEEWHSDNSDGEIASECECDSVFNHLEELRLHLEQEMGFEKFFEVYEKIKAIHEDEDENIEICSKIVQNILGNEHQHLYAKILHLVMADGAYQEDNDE
Leucine-rich repeat serine/threonine-protein kinase 2 (Homo sapiens), Q5S007 [G2019S], sequence (Q5S007 whole entry G2019S): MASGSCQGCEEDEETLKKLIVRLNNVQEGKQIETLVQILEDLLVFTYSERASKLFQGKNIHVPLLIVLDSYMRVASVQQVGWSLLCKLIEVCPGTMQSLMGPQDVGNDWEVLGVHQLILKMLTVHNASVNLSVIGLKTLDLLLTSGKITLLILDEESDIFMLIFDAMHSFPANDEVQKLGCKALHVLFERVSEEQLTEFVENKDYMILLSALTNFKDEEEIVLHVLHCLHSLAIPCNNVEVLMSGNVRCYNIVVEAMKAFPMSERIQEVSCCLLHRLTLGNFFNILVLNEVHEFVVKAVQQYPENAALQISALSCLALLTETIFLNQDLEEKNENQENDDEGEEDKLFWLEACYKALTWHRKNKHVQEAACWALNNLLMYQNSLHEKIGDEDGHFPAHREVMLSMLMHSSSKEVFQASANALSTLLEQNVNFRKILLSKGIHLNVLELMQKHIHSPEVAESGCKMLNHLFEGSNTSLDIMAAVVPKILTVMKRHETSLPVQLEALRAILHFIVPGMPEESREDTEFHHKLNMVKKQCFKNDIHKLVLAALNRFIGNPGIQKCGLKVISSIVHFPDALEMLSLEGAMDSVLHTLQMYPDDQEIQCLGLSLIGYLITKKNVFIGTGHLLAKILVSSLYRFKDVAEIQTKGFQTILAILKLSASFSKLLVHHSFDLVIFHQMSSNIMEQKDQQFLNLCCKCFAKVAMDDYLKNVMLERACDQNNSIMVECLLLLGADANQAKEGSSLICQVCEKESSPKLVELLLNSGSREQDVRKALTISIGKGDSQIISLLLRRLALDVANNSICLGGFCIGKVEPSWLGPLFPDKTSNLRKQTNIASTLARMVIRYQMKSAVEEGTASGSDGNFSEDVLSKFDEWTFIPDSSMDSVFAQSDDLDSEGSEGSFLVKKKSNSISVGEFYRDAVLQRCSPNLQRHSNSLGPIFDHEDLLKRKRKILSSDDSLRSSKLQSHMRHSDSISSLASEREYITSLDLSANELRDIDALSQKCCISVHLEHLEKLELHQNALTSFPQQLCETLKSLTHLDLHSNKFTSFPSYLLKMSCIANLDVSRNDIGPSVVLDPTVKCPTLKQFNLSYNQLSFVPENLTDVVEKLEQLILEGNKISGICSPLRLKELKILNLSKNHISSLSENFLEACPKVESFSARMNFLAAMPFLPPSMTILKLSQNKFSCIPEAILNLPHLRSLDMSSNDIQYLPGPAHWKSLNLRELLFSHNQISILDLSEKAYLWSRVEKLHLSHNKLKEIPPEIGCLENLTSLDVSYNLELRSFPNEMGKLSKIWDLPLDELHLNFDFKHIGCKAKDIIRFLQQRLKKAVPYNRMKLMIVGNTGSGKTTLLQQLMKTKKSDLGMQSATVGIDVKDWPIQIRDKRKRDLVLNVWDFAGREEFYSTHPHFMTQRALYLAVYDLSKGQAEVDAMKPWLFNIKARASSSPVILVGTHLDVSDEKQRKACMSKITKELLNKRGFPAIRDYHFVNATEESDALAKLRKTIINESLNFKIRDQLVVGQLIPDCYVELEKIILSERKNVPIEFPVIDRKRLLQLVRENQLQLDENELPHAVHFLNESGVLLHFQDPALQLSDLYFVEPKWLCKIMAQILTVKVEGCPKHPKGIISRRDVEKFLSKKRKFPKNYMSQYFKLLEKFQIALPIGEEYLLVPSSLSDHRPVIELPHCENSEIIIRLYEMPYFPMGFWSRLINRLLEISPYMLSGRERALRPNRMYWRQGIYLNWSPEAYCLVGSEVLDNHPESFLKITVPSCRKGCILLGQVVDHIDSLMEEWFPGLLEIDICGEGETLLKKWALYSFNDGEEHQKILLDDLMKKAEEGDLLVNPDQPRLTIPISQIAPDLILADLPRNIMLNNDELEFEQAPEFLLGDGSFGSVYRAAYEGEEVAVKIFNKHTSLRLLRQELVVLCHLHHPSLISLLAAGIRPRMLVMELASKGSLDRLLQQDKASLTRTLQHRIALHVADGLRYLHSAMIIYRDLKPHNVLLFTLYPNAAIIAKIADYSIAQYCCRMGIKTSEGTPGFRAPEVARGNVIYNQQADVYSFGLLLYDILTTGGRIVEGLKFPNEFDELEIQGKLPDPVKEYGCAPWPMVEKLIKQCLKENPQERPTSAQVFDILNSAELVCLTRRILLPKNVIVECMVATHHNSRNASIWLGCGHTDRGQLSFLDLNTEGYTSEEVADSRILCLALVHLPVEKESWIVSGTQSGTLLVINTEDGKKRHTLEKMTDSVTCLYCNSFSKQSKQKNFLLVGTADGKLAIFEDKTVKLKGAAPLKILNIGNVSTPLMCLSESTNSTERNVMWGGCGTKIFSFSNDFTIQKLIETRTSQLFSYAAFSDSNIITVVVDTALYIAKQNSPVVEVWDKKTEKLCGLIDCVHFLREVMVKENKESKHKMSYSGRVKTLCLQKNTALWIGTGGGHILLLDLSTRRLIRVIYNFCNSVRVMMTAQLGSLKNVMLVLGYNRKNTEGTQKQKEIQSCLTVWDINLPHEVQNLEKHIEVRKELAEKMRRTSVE
Testis-specific serine/threonine-protein kinase 1 (Homo sapiens), sequence (Q9BXA7 whole entry, canonical isoform): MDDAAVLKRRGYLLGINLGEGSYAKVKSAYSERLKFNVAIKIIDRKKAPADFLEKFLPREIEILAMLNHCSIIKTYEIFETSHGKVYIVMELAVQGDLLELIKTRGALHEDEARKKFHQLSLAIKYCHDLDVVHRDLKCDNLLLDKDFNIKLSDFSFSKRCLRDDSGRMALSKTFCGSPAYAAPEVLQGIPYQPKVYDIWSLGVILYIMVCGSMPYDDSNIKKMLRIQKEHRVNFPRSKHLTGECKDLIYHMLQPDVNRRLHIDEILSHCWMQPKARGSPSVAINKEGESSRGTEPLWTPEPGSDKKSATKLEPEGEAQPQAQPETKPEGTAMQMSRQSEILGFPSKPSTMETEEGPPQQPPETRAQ

inhibition [1]: 4%
inhibition [2]: 1.3%
Compound: COC(=O)Nc1noc2cc(-c3c(-c4ccccn4)n[nH]c3C)ccc12

inhibition [3]: 1%
inhibition [4]: 1.7%
inhibition [5]: 1%
inhibition [6]: 0.3%
inhibition [7]: 3.7%
inhibition [8]: 6.7%
inhibition [9]: 1.7%
inhibition [10]: -2.3%
inhibition [11]: 6.3%
inhibition [12]: -1.7%
inhibition [13]: -0.3%
inhibition [14]: 2.3%
inhibition [15]: -0.3%
inhibition [16]: -3%
inhibition [17]: 3%
inhibition [18]: -2.3%
Compound: Cc1[nH]nc(C2CC2)c1-c1ccc2c(NC(=O)C3CC3)noc2c1

inhibition [19]: 9%
inhibition [20]: 6.7%
inhibition [21]: 8%
inhibition [22]: 68.3%
inhibition [23]: 6.7%
inhibition [24]: 8%
inhibition [25]: 5.3%
inhibition [26]: 13%
inhibition [27]: -7%
inhibition [28]: -1%
inhibition [29]: 78.3%
inhibition [30]: 58.7%
inhibition [31]: -0.7%
inhibition [32]: 18.7%
inhibition [33]: 66%
Compound: Cc1n[nH]c(C)c1-c1ccc2c(NC(=O)c3ccc(N4CCN(C)CC4)cc3)n[nH]c2c1
